Reference: patent US11414436B2, “Non-coordinating anion type activators containing cation having large alkyl groups” (ExxonMobil Chemical Patents Inc., priority 2018, dated 2022)
Where “and” joins values, the source holds several entries; their conditions need not be identical. Equal entries are not always repeated.

Assays:
[1] = Solubility studies of the activators (saturated solution in isohexane or methylcyclohexane); type: physicochemical
Summary of the method: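 Solid activators stirred in excess with isohexane or methylcyclohexane for several hours at 25 °C, filtered, and a filtrate aliquot evaporated and weighed. Emulsion-forming activators titrated with solvent until homogeneous, with activator mass found gravimetrically. Saturated concentration given in mM.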

[2] = as above; type: physicochemical; conditions: methylcyclohexane
[3] = RUN B: ethylene-octene polymerization in parallel pressure reactor, activator diluent toluene or methylcyclohexane; conditions: ethylene-octene copolymerization; for activity: Cat 1 (MCN-1)
Procedure: RUN B: Polymerization in Parallel Pressure Reactor.
A series of ethylene-octene polymerizations were performed in the parallel pressure reactor according to the procedure described above. […] In a typical experiment an automated syringe was used to introduce into the reactor the following reagents, if utilized, in the following order: isohexane (0.35 mL), an isohexane solution of TNOAL scavenger (0.005 M, 60 μL), additional isohexane (0.35 mL), a toluene solution of the respective polymerization catalyst (150 μL, 0.4 mM, 20 nm [cat]/100 μL [toluene]), additional isohexane (0.35 mL), a toluene or methylcyclohexane solution of the respective activator (150 μL, 0.4 mM, (20 nm [act]/100 μL[ diluent])), then additional isohexane so that the total solvent volume for each run was 5 mL. Catalyst and activator were used in a 1:1 ratio. Each reaction was performed at a specified temperature range between 50 and 120° C., typically 95° C., while applying about 100 psig of ethylene (monomer) gas. Each reaction was allowed to run for about 1 hour (˜3600 seconds) or until approximately 20 psig of ethylene gas uptake was observed, at which point the reactions were quenched with air (˜300 psig). When sufficient polymer yield was attained (e.g., at least ˜10 mg), the polyethylene product was analyzed by Rapid GPC, described below.
In a typical experiment, the anilinium borate activators were combined with toluene or methylcyclohexane as diluent and introduced to the parallel, pressure reactor via syringe. By this mechanism of activator introduction, only well dissolved activators could be delivered to the reactor providing a means to discriminate between the polymerization performance of long chain soluble anilinium borates vs. conventional anilinium borates. Following addition of activator, the catalyst Cat 1 was introduced, via syringe as well-dissolved toluene solution and the polymerization was conducted per the methodology described above.

Solubility limit in i-hexane (mM at 25° C.) ([1]; isohexane) | Solubility limit in i-hexane (wt % at 25° C.) ([1]; isohexane) | Solubility limit in MeCy (mM at 25° C.) ([1]; methylcyclohexane) | Solubility limit in MeCy (wt % at 25° C.) [2] | Compound | quantity of polymer obtained with methylcyclohexane as diluent ([3]; Cat 1, activator in methylcyclohexane) | activity ([3]; activator diluent MeCy (methylcyclohexane)) | activity ([3]; activator diluent Toluene, listed as C2)
120 mM | 29 wt % | 160 mM | 35 wt % | CCCCCCCCCCCCCCCCCC[NH+](CCCCCCCCCCCCCCCCCC)c1ccc(C)cc1.Fc1c(F)c(F)c2c(F)c([B-](c3c(F)c(F)c4c(F)c(F)c(F)c(F)c4c3F)(c3c(F)c(F)c4c(F)c(F)c(F)c(F)c4c3F)c3c(F)c(F)c4c(F)c(F)c(F)c(F)c4c3F)c(F)c(F)c2c1F [DOdTH-BF28, 4-methyl-N,N-dioctadecylbenzenaminium-BF28] |  |  | 
 |  |  |  | N,N-dimethylanilinium tetrakis(heptafluoronaphthalen-2-yl)borate [DMAH-BF28, reference compound] | insufficient for analysis | 0.0 kg/mmol/h | 441.3 kg/mmol/h and 392.4 kg/mmol/h and 390.1 kg/mmol/h and 408.1 kg/mmol/h
